Source: patent US6268362A, “Amino anthracyclinone derivatives and their use in the treatment of amyloidosis” (Pharmacia & Upjohn SpA, priority 1998, dated 2001)

Target: T1, Aβ1-40 peptide (Homo sapiens, UniProt P05067)
T1 construct: An Aβ1-40 peptide monomer stock solution was prepared by dissolving the peptide in dimethylsulfoxide
Test: Inhibition of aggregation of monomeric Aβ1-40 peptide stimulated by a seed of pre-formed sonicated Aβ1-40 amyloid fibrils (HPLC of residual monomer)
Format: biochemical
Conditions: 20 μM Aβ1-40 monomer, 50 μM test compound, 4 μM pre-formed sonicated Aβ1-40 fibrils, 2 h at 37° C., pH 7.4
Experimental: The compounds disclosed in the present invention interfere with the aggregation of monomeric Aβ1-40 peptide stimulated by a seed of Aβ1-40 amyloid fibrils. The activity of the compounds was assessed according to the procedure reported below.
An Aβ1-40 peptide monomer stock solution was prepared by dissolving the peptide in dimethylsulfoxide at a concentration of 33.33 mg/ml. The stock solution was further diluted 11.5 times with dimethylsulfoxide. This solution was then diluted with 10 mM phosphate buffer pH 7.4 containing 150 mM sodium chloride to prepare the test solution. To an eppendorf tube containing 47 μl of Aβ1-40 peptide monomer solution were added 3 μl of a 830 μM water solution of the test compound containing 66.4 μM, based on the Aβ1-40 monomer content, of pre-formed sonicated Aβ1-40 fibrils: the resulting solution was 20 μM in Aβ1-40 monomer, 50 μM in the test compound and contained 4 μM, based on the Aβ1-40 monomer content, of pre-formed sonicated Aβ1-40 fibrils. The aggregation was allowed to proceed for two hours at 37° C. The suspension was then centrifuged at 15000 rpm for 15 minutes at +4° C., the supernatant was collected and the Aβ1-40 monomer was quantitated by HPLC. The activity is expressed as the percent of inhibition of the aggregation of a 20 μM Aβ1-40 monomer solution stimulated by 4 μM, based on the Aβ1-40 monomer content, pre-formed sonicated Aβ1-40 fibrils.

T1 sequence (P05067 672-711 limits assumed): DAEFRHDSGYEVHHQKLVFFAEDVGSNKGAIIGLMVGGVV

SMILES | % inhibition [%]
COc1cccc2c1C(=O)c1c(O)c3c(c(O)c1C2=O)CC(O)(C(=O)CN1CC=CCC1)CC3N1CCOCC1 (stereo not shown) [Compound 1k, 7-deoxy-7-(4-morpholinyl) -14-(1,2,3,6-tetrahydropyridin-1-yl)daunomycinone] | 52.1
COc1cccc2c1C(=O)c1c(O)c3c(c(O)c1C2=O)CC(O)(C(O)CN1CC=CCC1)CC3 [Compound 1d, (13R)-7-deoxy-13-dihvdro-14-(1,2,3,6-tetrahydropyridin-1-yl)daunomycinone] | 47.3
COc1cccc2c1C(=O)c1c(O)c3c(c(O)c1C2=O)CC(O)(C(=O)CN1CCOCC1)CC3 (stereo not shown) [Compound A17, 7-deoxy-14-(4-morpholinyl)-daunomycinone, reference compound] | 11.4
COc1cccc2c1C(=O)c1c(O)c3c(c(O)c1C2=O)CC(O)(C(=O)CN1CC=CCC1)CC3O (stereo not shown) [Compound 1a, 14-(1,2,3,6-tetrahydropyridin-1-yl)daunomycinone] | 74.1
